Source: ChEMBL document CHEMBL1201862, “PubChem BioAssay data set” (2004)
Calls of active or inactive are those of the source.

Assays:
fMet-Leu-Phe receptor = fMet-Leu-Phe receptor (Homo sapiens, UniProt P21462); assay: FPR ligands, dose response (AID 519); format: functional
Cytochrome P450 2C9 = Cytochrome P450 2C9 (Homo sapiens, UniProt P11712)
Paired box protein Pax-8 = Paired box protein Pax-8 (Homo sapiens, UniProt Q06710); assay: inhibitors of PAX8-driven TPO luciferase reporter, dose response, RMG-I cells, cherry-pick (AID 687027); format: functional, cell-based;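 further: luciferase reporter driven by Pax8 target thyroperoxidase promoter measured by SteadyGlo luminescence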
[1] = NIH:OVCAR-3 ovarian cancer cell cytotoxicity, dose response, PAX8 inhibitor project, plate reader, dry powder samples (AID 743044); format: functional, cell-based
[2] = P. falciparum Dd2 growth inhibitors, dose response, SYBR Green, dry powder samples, set 9 (AID 1159568); format: functional, cell-based
[3] = P. falciparum Dd2 growth inhibitors, dose response, SYBR Green, cherry-picked samples (AID 1159567); format: functional, cell-based
[4] = HepG2 cell cytotoxicity, dose response, cytotoxicity control, cherry-picked samples (AID 1159577); format: functional, cell-based
[5] = cytotoxicity in HEK-293T cells, dose response, cytotoxicity control for TCR NF-kB inhibitor project, luminescence, T-cell screen hits (AID 489026); format: functional, cell-based;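 further: cells exposed to compound about 14 hours before the viability readout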
[6] = Concentration-dependent survival of SW480 colon cancer line, luminescence detection with CellTiter-Glo, half-maximal inhibitory concentration (AID 1117338); format: functional
[7] = RKO cell viability reduction, dose response, CellTiter-Glo luminescence (AID 1117322); format: functional
[8] = cytotoxicity toward HCT116 cells – cell-based, CellTiter-Glo luminescence, IC50, dose response (AID 1117332); format: functional; details: HCT-116
[9] = SNU-C1 cell viability reduction, dose response, CellTiter-Glo luminescence (AID 1117323); format: functional, cell-based
[10] = cytotoxicity toward Colo320 cells – cell-based, CellTiter-Glo luminescence, IC50, dose response (AID 1117334); format: functional; details: COLO 320
[11] = cytotoxicity toward HT-29 cells – cell-based, CellTiter-Glo luminescence, IC50, dose response (AID 1117330); format: functional
[12] = CellTiter-Glo luminescent dose response of DLD-1 viability loss (AID 1117352); format: functional
[13] = Luminescence Cell-Based Dose Response HTS to Identify Activators of Luciferase Translation or Activity in H4 […] Cells. [Related pubchem assays: 1829 (Project Summary), 1814 (Primary HTS)]; format: functional
H4 = assay: Luminescence Cell-Based Dose Response HTS to Identify Activators of 5'UTR Stem-Loop Driven Prion Protein mRNA Translation in H4 Neuroglioblastoma Cells. [Related pubchem assays: 1829 (Project Summary), 1814 (Primary HTS)]; format: functional; details: Homo sapiens
Protein skinhead-1 = target: T1, Protein skinhead-1 (Caenorhabditis elegans, UniProt P34707); format: functional
T1 sequence (P34707 whole entry): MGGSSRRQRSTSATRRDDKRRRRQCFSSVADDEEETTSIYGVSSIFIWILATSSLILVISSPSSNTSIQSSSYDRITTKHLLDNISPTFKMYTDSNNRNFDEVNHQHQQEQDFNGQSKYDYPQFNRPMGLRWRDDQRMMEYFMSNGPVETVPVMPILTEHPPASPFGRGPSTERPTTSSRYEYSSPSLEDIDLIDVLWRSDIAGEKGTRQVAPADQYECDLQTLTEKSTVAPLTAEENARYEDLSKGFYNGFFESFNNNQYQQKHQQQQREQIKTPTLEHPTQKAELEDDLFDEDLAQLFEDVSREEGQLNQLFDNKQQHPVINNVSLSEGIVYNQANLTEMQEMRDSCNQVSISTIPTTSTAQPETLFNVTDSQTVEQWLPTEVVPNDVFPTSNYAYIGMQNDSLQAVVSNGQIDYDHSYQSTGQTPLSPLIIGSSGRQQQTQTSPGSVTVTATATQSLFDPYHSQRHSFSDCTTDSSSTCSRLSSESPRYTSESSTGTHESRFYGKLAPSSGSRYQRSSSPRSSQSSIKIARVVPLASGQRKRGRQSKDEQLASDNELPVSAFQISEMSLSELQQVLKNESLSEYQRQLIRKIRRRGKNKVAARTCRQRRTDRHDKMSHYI

[14] = target: T2, Oxysterols receptor LXR-beta (Homo sapiens, UniProt P55055); format: functional, cell-based;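 further: Cell-based luminescence dose-response assay of agonist activity at LXR, run as a confirmatory counterscreen to a daf-12 agonist screen; HEK293 cells with Gal4-LXR fusion and GAL4-driven luciferase reporter; agonist potency from rising luciferase signal of a Gal4-LXR reporter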
T2 sequence (P55055 whole entry): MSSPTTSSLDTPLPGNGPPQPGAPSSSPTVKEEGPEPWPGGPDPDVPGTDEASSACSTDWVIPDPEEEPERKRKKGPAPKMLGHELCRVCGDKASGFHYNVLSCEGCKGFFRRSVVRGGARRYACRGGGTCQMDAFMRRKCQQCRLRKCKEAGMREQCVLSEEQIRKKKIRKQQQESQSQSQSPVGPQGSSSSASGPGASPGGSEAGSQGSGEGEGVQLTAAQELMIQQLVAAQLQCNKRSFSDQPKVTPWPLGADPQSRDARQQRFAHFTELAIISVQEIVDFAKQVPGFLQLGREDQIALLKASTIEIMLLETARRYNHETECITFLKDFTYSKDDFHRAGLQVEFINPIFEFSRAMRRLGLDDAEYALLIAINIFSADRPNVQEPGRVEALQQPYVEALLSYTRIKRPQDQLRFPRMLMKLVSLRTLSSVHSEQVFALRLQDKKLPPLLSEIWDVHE

Chain of fMet-Leu-Phe receptor (P21462 whole entry): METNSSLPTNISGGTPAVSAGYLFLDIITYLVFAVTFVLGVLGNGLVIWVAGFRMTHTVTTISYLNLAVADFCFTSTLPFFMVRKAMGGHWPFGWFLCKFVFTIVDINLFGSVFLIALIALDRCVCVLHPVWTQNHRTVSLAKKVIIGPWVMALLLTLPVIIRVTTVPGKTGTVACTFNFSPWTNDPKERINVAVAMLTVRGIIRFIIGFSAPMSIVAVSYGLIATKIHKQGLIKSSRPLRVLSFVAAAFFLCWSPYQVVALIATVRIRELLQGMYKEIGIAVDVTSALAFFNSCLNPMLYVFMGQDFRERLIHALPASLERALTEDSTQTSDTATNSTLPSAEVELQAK
Chain of Paired box protein Pax-8 (Q06710 whole entry): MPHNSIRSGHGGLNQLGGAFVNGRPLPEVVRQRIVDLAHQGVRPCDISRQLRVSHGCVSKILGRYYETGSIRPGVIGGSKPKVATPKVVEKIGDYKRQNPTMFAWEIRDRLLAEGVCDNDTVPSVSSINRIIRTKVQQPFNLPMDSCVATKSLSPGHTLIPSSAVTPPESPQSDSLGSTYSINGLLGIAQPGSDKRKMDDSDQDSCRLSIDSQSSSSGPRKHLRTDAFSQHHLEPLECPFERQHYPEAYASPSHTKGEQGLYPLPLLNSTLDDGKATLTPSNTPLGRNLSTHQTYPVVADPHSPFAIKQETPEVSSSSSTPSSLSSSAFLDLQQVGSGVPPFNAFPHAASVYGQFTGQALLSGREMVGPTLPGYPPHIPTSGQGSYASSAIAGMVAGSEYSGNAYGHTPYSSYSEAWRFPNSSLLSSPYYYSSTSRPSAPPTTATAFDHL
Chain of Cytochrome P450 2C9 (P11712 whole entry): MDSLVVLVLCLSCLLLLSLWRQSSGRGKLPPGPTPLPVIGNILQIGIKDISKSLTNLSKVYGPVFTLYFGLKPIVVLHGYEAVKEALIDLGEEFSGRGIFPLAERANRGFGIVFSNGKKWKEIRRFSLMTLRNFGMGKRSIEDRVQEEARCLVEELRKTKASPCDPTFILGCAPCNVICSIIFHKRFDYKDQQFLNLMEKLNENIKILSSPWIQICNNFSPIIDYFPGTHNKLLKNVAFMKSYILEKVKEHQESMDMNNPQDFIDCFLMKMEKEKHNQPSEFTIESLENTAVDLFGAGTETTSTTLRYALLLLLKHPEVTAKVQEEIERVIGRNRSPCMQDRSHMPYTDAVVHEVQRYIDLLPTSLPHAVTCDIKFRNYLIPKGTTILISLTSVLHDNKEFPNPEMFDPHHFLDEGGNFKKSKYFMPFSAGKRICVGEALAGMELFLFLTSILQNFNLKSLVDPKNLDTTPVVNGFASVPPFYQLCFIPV

COc1ccc(-c2c(C)oc3c(CN4CCN(CCO)CC4)c(O)ccc3c2=O)cc1OC
Ki (fMet-Leu-Phe receptor): > 66.7 µM (inactive)
AC50 (Cytochrome P450 2C9): 447 nM (inconclusive)

COc1cccc(S(=O)(=O)N2CCCCN3[C@@H](CO)[C@@H](c4ccc(C#CCC(C)C)cc4)[C@@H]3C2)c1
AC50 (Paired box protein Pax-8): 14.6 µM (active)
AC50 [1]: 43.3 µM (active)
AC50 [2]: 1.48 µM (active)
AC50 [3]: 991 nM (active)
AC50 [4]: 11.8 µM (active)

COc1cccc(C(=O)C2=C(O)C(=O)N(Cc3cccnc3)C2c2ccco2)c1 (stereo not drawn)
Ki (fMet-Leu-Phe receptor): > 66.7 µM (inactive)

O=S(=O)(Cc1ccccc1)N1CCCCN2[C@@H](CO)[C@H](c3ccc(C#Cc4ccccc4)cc3)[C@@H]2C1
AC50 [3]: 4250 nM (active)
AC50 [4]: 8.93 µM (active)

Nc1ncn([C@@H]2O[C@H](CO)[C@@H](O)[C@H]2O)c(=O)n1 [AZACITIDINE]
IC50 [5]: > 80 µM (inactive)
IC50 [6]: > 6.67 µM (inactive)
IC50 [7]: 7.4 µM (inactive)
IC50 [8]: 3.04 µM (active)
IC50 [9]: 1.8 µM (active)
IC50 [10]: 12.3 µM (inactive)
IC50 [11]: 12.5 µM (inactive)
IC50 [12]: 2.55 µM (active)

Cc1nc(NC(=O)c2cccs2)ccc1Br
EC50 [13]: 13.2 µM (active)
EC50 (H4): 129 nM (active)
IC50 (Protein skinhead-1): 24.4 µM (active)
EC50 [14]: > 67.5 µM (inactive)
EC50 (cells): > 67.5 µM (inactive)
